This note sets out measurements from the supplement of paper PMC10307832.

In one assay the test system is SW 1573. Kind of assay: relative viability (nuclei count vs DMSO), 5 days (fraction); higher = more cells survive. The note with it: first compound 0.2 µM. The essentials: (§1)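 Lung cancer cell lines were seeded in 1536-well plates and dosed by pin tool the next day, with either a single drug or a fixed anchor-drug dose combined with five library-drug doses (not always all listed) spaced in √10 steps. Five days later, one step fixed the cells and stained their nuclei (final 0.05% Triton X-100, 1% formaldehyde, 1 ug/ml Hoechst), and nuclei were counted on 4× images. Relative viability is the nuclei count in treated wells divided by the count in vehicle wells, and each value is the median of duplicate plates.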
On to `COCC1(CO)C(=O)C2CCN1CC2` (stereo not given) [PRIMA-1MET] + CC(C)C[C@H](NC(=O)[C@H](Cc1ccccc1)NC(=O)c1cnccn1)B(O)O [Bortezomib] (partner 0.002 µM), for which the relative viability came out at 1.13.

Turning to `COCC1(CO)C(=O)C2CCN1CC2` (stereo not given) [PRIMA-1MET] + CC(=O)Nc1cccc(-n2c(=O)n(C3CC3)c(=O)c3c(Nc4ccc(I)cc4F)n(C)c(=O)c(C)c32)c1 [Trametinib] (partner 0.02 µM), the relative viability worked out at 0.604.

Molecule `COCC1(CO)C(=O)C2CCN1CC2` (stereo not given) [PRIMA-1MET] + Nc1ncn([C@H]2C[C@H](O)[C@@H](CO)O2)c(=O)n1 [Decitabine] (partner 2 µM) came in with a relative viability of 0.58.

On to `COCC1(CO)C(=O)C2CCN1CC2` (stereo not given) [PRIMA-1MET] + O=C(c1cc(Cc2n[nH]c(=O)c3ccccc23)ccc1F)N1CCN(C(=O)C2CC2)CC1 [Olaparib] (partner 8 µM), for which the relative viability was found to be 0.672.

In turn, `COCC1(CO)C(=O)C2CCN1CC2` (stereo not given) [PRIMA-1MET] + C[C@@H](Oc1cc(-c2cnn(C3CCNCC3)c2)cnc1N)c1c(Cl)ccc(F)c1Cl [Crizotinib] (partner 1 µM) displayed a relative viability of 0.935.

Staying with this assay, now noted: first compound 0.6325 µM.
On to `COCC1(CO)C(=O)C2CCN1CC2` (stereo not given) [PRIMA-1MET] + CC(C)C[C@H](NC(=O)[C@H](Cc1ccccc1)NC(=O)c1cnccn1)B(O)O [Bortezomib] (partner 0.002 µM), for which the relative viability is 0.802.

The molecule `COCC1(CO)C(=O)C2CCN1CC2` (stereo not given) [PRIMA-1MET] + CC(=O)Nc1cccc(-n2c(=O)n(C3CC3)c(=O)c3c(Nc4ccc(I)cc4F)n(C)c(=O)c(C)c32)c1 [Trametinib] (partner 0.02 µM) yielded a relative viability of 0.54.

On to `COCC1(CO)C(=O)C2CCN1CC2` (stereo not given) [PRIMA-1MET] + C[C@@H](Oc1cc(-c2cnn(C3CCNCC3)c2)cnc1N)c1c(Cl)ccc(F)c1Cl [Crizotinib] (partner 1 µM), for which the relative viability amounted to 0.571.

Staying with this assay, now noted: first compound 2 µM.
Molecule `COCC1(CO)C(=O)C2CCN1CC2` (stereo not given) [PRIMA-1MET] + CC(C)C[C@H](NC(=O)[C@H](Cc1ccccc1)NC(=O)c1cnccn1)B(O)O [Bortezomib] (partner 0.002 µM) had a relative viability of 1.03.

`COCC1(CO)C(=O)C2CCN1CC2` (stereo not given) [PRIMA-1MET] + CC(=O)Nc1cccc(-n2c(=O)n(C3CC3)c(=O)c3c(Nc4ccc(I)cc4F)n(C)c(=O)c(C)c32)c1 [Trametinib] (partner 0.02 µM) showed a relative viability of 0.409.

Molecule `COCC1(CO)C(=O)C2CCN1CC2` (stereo not given) [PRIMA-1MET] + Nc1ncn([C@H]2C[C@H](O)[C@@H](CO)O2)c(=O)n1 [Decitabine] (partner 2 µM) showed a relative viability of 0.285.

Molecule `COCC1(CO)C(=O)C2CCN1CC2` (stereo not given) [PRIMA-1MET] + O=C(c1cc(Cc2n[nH]c(=O)c3ccccc23)ccc1F)N1CCN(C(=O)C2CC2)CC1 [Olaparib] (partner 8 µM) came in with a relative viability of 0.388.

Turning to `COCC1(CO)C(=O)C2CCN1CC2` (stereo not given) [PRIMA-1MET] + C[C@@H](Oc1cc(-c2cnn(C3CCNCC3)c2)cnc1N)c1c(Cl)ccc(F)c1Cl [Crizotinib] (partner 1 µM), the relative viability amounted to 0.843.

The same assay, now with this note: first compound 6.325 µM.
The molecule `COCC1(CO)C(=O)C2CCN1CC2` (stereo not given) [PRIMA-1MET] + CC(C)C[C@H](NC(=O)[C@H](Cc1ccccc1)NC(=O)c1cnccn1)B(O)O [Bortezomib] (partner 0.002 µM) showed a relative viability of 0.421.

As to `COCC1(CO)C(=O)C2CCN1CC2` (stereo not given) [PRIMA-1MET] + CC(=O)Nc1cccc(-n2c(=O)n(C3CC3)c(=O)c3c(Nc4ccc(I)cc4F)n(C)c(=O)c(C)c32)c1 [Trametinib] (partner 0.02 µM), the relative viability is 0.0772.

Consider `COCC1(CO)C(=O)C2CCN1CC2` (stereo not given) [PRIMA-1MET] + Nc1ncn([C@H]2C[C@H](O)[C@@H](CO)O2)c(=O)n1 [Decitabine] (partner 2 µM), for which the relative viability came out at 0.0265.

In the case of `COCC1(CO)C(=O)C2CCN1CC2` (stereo not given) [PRIMA-1MET] + O=C(c1cc(Cc2n[nH]c(=O)c3ccccc23)ccc1F)N1CCN(C(=O)C2CC2)CC1 [Olaparib] (partner 8 µM), the relative viability is 0.0574.

For the molecule `COCC1(CO)C(=O)C2CCN1CC2` (stereo not given) [PRIMA-1MET] + C[C@@H](Oc1cc(-c2cnn(C3CCNCC3)c2)cnc1N)c1c(Cl)ccc(F)c1Cl [Crizotinib] (partner 1 µM), the relative viability was determined as 0.276.

Still in this assay, the particulars now being: first compound 20 µM.
`COCC1(CO)C(=O)C2CCN1CC2` (stereo not given) [PRIMA-1MET] + CC(C)C[C@H](NC(=O)[C@H](Cc1ccccc1)NC(=O)c1cnccn1)B(O)O [Bortezomib] (partner 0.002 µM) gave a relative viability of 0.0222.

`COCC1(CO)C(=O)C2CCN1CC2` (stereo not given) [PRIMA-1MET] + CC(=O)Nc1cccc(-n2c(=O)n(C3CC3)c(=O)c3c(Nc4ccc(I)cc4F)n(C)c(=O)c(C)c32)c1 [Trametinib] (partner 0.02 µM) came in with a relative viability of 0.024.

Molecule `COCC1(CO)C(=O)C2CCN1CC2` (stereo not given) [PRIMA-1MET] + Nc1ncn([C@H]2C[C@H](O)[C@@H](CO)O2)c(=O)n1 [Decitabine] (partner 2 µM) showed a relative viability of 0.0223.

`COCC1(CO)C(=O)C2CCN1CC2` (stereo not given) [PRIMA-1MET] + O=C(c1cc(Cc2n[nH]c(=O)c3ccccc23)ccc1F)N1CCN(C(=O)C2CC2)CC1 [Olaparib] (partner 8 µM) returned a relative viability of 0.0284.

`COCC1(CO)C(=O)C2CCN1CC2` (stereo not given) [PRIMA-1MET] + C[C@@H](Oc1cc(-c2cnn(C3CCNCC3)c2)cnc1N)c1c(Cl)ccc(F)c1Cl [Crizotinib] (partner 1 µM) yielded a relative viability of 0.0264.

The subject of the next assay is NCI-H1755. The assay is described as above. Conditions: first compound 0.2 µM. The essentials:
as §1
Consider `COCC1(CO)C(=O)C2CCN1CC2` (stereo not given) [PRIMA-1MET] + CC(C)C[C@H](NC(=O)[C@H](Cc1ccccc1)NC(=O)c1cnccn1)B(O)O [Bortezomib] (partner 0.002 µM), for which the relative viability was determined as 1.11.

`COCC1(CO)C(=O)C2CCN1CC2` (stereo not given) [PRIMA-1MET] + CC(=O)Nc1cccc(-n2c(=O)n(C3CC3)c(=O)c3c(Nc4ccc(I)cc4F)n(C)c(=O)c(C)c32)c1 [Trametinib] (partner 0.02 µM): the relative viability was 0.676.

`COCC1(CO)C(=O)C2CCN1CC2` (stereo not given) [PRIMA-1MET] + Nc1ncn([C@H]2C[C@H](O)[C@@H](CO)O2)c(=O)n1 [Decitabine] (partner 2 µM) had a relative viability of 0.785.

`COCC1(CO)C(=O)C2CCN1CC2` (stereo not given) [PRIMA-1MET] + O=C(c1cc(Cc2n[nH]c(=O)c3ccccc23)ccc1F)N1CCN(C(=O)C2CC2)CC1 [Olaparib] (partner 8 µM) gave a relative viability of 0.867.

Turning to `COCC1(CO)C(=O)C2CCN1CC2` (stereo not given) [PRIMA-1MET] + C[C@@H](Oc1cc(-c2cnn(C3CCNCC3)c2)cnc1N)c1c(Cl)ccc(F)c1Cl [Crizotinib] (partner 1 µM), the relative viability was 0.996.

The same assay, now with this note: first compound 0.6325 µM.
In turn, `COCC1(CO)C(=O)C2CCN1CC2` (stereo not given) [PRIMA-1MET] + CC(C)C[C@H](NC(=O)[C@H](Cc1ccccc1)NC(=O)c1cnccn1)B(O)O [Bortezomib] (partner 0.002 µM) gave a relative viability of 0.892.

`COCC1(CO)C(=O)C2CCN1CC2` (stereo not given) [PRIMA-1MET] + CC(=O)Nc1cccc(-n2c(=O)n(C3CC3)c(=O)c3c(Nc4ccc(I)cc4F)n(C)c(=O)c(C)c32)c1 [Trametinib] (partner 0.02 µM): the relative viability came to 0.729.
